This is an account of results in paper PMC3247180, “Polyamidoamine (PAMAM) dendrimer conjugate specifically activates the A3 adenosine receptor to improve post-ischemic/reperfusion function in isolated mouse hearts” (BMC Pharmacology, 2011).

“Also recorded” adds a separate entry of the source.

In experiment [1] the target is T1, mA3AR (Mus musculus, UniProt Q61618).
T1 construct: expressed in transfected cells; host or cells: HEK293
T1 sequence (Q61618 1-319): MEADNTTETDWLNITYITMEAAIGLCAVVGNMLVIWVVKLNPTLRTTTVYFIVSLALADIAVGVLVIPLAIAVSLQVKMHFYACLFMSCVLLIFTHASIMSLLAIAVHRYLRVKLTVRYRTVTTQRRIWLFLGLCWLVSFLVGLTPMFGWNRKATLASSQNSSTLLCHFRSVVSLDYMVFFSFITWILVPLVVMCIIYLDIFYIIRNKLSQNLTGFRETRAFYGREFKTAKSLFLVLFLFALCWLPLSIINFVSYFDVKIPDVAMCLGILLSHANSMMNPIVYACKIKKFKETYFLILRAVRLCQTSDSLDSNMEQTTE
The experiment is described as follows: Radioligand ([125I]I-AB-MECA) competition binding, mA3AR. The protocol: (§1) The competition assays were performed as previously published. Briefly, to prepare the membranes, HEK293 cells stably expressing recombinant mARs were harvested and homogenized in 10 mM Na^+-HEPES buffer (pH 7.4) with 10 mM EDTA and 0.1 mM benzamidine. The cell lysates were centrifuged (35,000 × g for 25 min; 4°C), and the pellets were resuspended in 10 mM Na^+-HEPES buffer (pH 7.4) with 1 mM EDTA and 0.1 mM benzamidine. The suspensions were homogenized and centrifuged again (35,000 × g for 25 min; 4°C). The resultant pellets were re-suspended in buffer containing 10% sucrose and stored at -80°C until use. For the radioligand binding assays, 50 μg cell membranes (100 μL) were incubated in 10 mM Na^+-HEPES buffer (pH 7.4) with 5 mM MgCl2, 5 U/mL ADA, and [^125I]I-AB-MECA as radioligand. The competing ligands of interest were added at various concentration ranges. The IC50 values were calculated using nonlinear regression analysis by fitting the data to the following equation: binding=nonspecific binding+total binding-nonspecific binding∕1+10^x-logIC50 Inhibition constant (Ki) values were calculated using the Cheng-Prusoff equation [36]. The concentration of MRS5246 reflected the concentration of the dendrimeric complex, not the individual ligand moieties. Therefore, all binding Ki values of this dendrimer are to be considered as Kiapp values.

The target in experiment [2] is T2, mA1AR (Mus musculus, UniProt Q60612).
T2 construct: expressed in transfected cells; host or cells: HEK293
T2 sequence (Q60612 1-326): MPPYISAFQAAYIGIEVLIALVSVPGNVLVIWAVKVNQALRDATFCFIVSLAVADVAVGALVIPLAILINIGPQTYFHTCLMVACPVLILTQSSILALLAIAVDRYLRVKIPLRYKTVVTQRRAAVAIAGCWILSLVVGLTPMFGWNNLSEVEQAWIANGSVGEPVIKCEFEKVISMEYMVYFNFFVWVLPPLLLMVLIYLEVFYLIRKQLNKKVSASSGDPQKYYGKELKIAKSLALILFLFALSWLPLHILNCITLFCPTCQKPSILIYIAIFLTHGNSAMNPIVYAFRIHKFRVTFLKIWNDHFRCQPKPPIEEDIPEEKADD
Nature of the experiment: Radioligand ([125I]I-AB-MECA) competition binding, mA1AR. The note with it: recombinant mAR on HEK293 cell membranes, Kiapp for the dendrimer conjugate, read-out: mA1AR, Ki or Kiapp. The protocol: as §1

Experiment [3] addresses T1, mA3AR. Nature of the experiment: cAMP functional assay (inhibition of forskolin-stimulated cAMP production), mA3AR in HEK293 cells. Type of experiment: cell-based. The procedure:
(§2) The assays of cAMP (3',5'-cyclic adenosine monophosphate) were performed utilizing a modified protocol published by Nordstedt and colleagues, whereby cAMP content was determined by displacement of [^3H]cAMP binding to regulatory subunits of protein kinase A in bovine adrenal extracts. HEK293 cells heterologously expressing the mA3AR were prepared by plating 2.5 × 10^5 cells per well in 24-well plates and cultured overnight in complete media (DMEM with 10% fetal bovine serum/PenStrep/0.4 mg/mL G418) at 37°C. The cells were washed with DMEM/25 mM HEPES (pH 7.4) followed by incubation in DMEM/25 mM HEPES containing 20 μM Ro 20-1274 (phosphodiesterase inhibitor), 1 U/mL ADA and a combination of two selective A2BAR antagonists (300 nM CVT-6883 and 300 nM PSB603) at 37°C for 15 min. Forskolin (20 μM) to induce cAMP production and the test compounds of interest were then simultaneously added. A concentration range of ligands or dendrimer conjugates was tested in triplicate to inhibit cAMP production via activation of A1 or A3 ARs. After incubation at 37°C for 15 min, the media was aspirated, and the cells were lysed with 200 μL ice cold 0.1 M HCl on a shaker at 4°C for 30 min. The lysates were collected and cAMP levels in the acid extract were determined by competitive binding assays as follows. Each lysate sample and cAMP standard were diluted in 0.1 M HCl and subsequently transferred to polypropylene tubes (100 μL). [^3H]cAMP (12,000 cpm/100 μL water/tube) and protein extract from bovine adrenal tissue were then added (240 μg adrenal protein/tube at a concentration of 0.6 μg/μL, in the binding protein buffer: 100 mM Tris-HCl, 250 mM NaCl, 10 mM EDTA, 0.1% 2-mercaptoethanol, pH 8.0), with the extract isolated from bovine adrenal glands as described by Nordstedt, et al. to provide the cAMP binding substrate. The samples were incubated at 4°C for 2.5 hours and harvested through GF/C glass microfiber filters using a cell harvester (Brandel, Gaithersburg, MD) and counted in scintillation cocktail. […]
(Changes in cAMP serve as a functional read-out for many G protein-coupled receptors.)

For experiment [4], the target named is T2, mA1AR. Nature of the experiment: cAMP functional assay (inhibition of forskolin-stimulated cAMP production), mA1AR in HEK293 cells. In kind it is cell-based. The protocol: as §2, with “After incubation at 37°C for 15 min, the media was aspirated, and the cells were lysed with 200 μL ice cold 0.1 M HCl on a shaker at 4°C for 30 min.” left out, “Each lysate sample and cAMP standard were diluted in 0.1 M HCl and subsequently transferred to polypropylene tubes (100 μL). [^3H]cAMP (12,000 cpm/100 μL water/tube) and protein extract from bovine adrenal tissue were then added (240 μg adrenal protein/tube at a concentration of 0.6 μg/μL, in the binding protein buffer: 100 mM Tris-HCl, 250 mM NaCl, 10 mM EDTA, 0.1% 2-mercaptoethanol, pH 8.0), with the extract isolated from bovine adrenal glands as described by Nordstedt, et al. to provide the cAMP binding substrate.” left out

The test system of experiment [5] is isolated mouse hearts. The experiment is described as follows: Langendorff-perfused isolated mouse heart model of I/R (wild-type). The protocol:
MRS5246 and MRS5233 were tested for effects on functional improvement in isolated mouse hearts subjected to global ischemia and reperfusion. The agonists were infused into the coronary circulation of the hearts for 10 min immediately before 20 min of global ischemia. The functional recovery parameters (left ventricular developed pressure [LVDP], rate of contraction [dP/dtmax], rate of relaxation [dP/dtmin], and coronary flow [CF; mL/min/g]) of the hearts were assessed throughout reperfusion and after 45 min of reperfusion and compared to those of control hearts.
Isolated mouse heart experiments were performed as described previously. In brief, hearts were isolated from C57Bl/6J male mice and cannulated via the aorta and perfused in a retrograde fashion by Krebs-Henseleit buffer. Pressure measurements were obtained via a fluid-filled balloon inserted into the left ventricle via the mitral valve and connected to a pressure transducer. The hearts were immersed in warmed perfusion buffer to maintain the hearts at 37°C, and the balloons were inflated to achieve constant end-diastolic pressures of 5 to 10 mm Hg.
The hearts were perfused for 20 min to achieve stabilization and then paced at 420 beats/min for baseline functional measurements. Global ischemia was achieved by closing an in-line stopcock to stop perfusion for 20 min followed by 45 min of reperfusion by re-opening the stopcock. To examine the effect of the ligands and dendrimer conjugates on functional recovery, the hearts were perfused with buffer containing the indicated concentrations of compounds for 10 min immediately before ischemia.
All data are reported as means ± S.E.M. Functional recovery data in the isolated heart studies were analyzed by two-way repeated measures ANOVA. […] Left ventricular functional recoveries at 45 min of reperfusion were compared using one-way analysis of variance followed by Student's t test with the Bonferroni correction or an unpaired Student's t test, as appropriate. P < 0.05 was statistically significant.

Experiment [6] has as its target hA3AR. The note with it: ref [13],[14]; cited from earlier work.
In experiment [7] the target is hA2AAR. Also on record: method as in PMID 19499950, PMID 20036562. The conditions noted are these: ref [13],[14]; cited from earlier work.
Experiment [8] concerns hA1AR. More on the design: method as in PMID 19499950, PMID 20036562. The note with it: at 10 μM; ref [13],[14]; cited from earlier work.

As to `CNC(=O)[C@@]12C[C@@H]1[C@@H](n1cnc3c(NCc4cccc(Cl)c4)nc(C#CCCCCc4cn(CCNC(C)=O)nn4)nc31)[C@H](O)[C@@H]2O` [MRS5233], the Ki was 3.94 ± 0.31 nM in experiment [1] ([125I]I-AB-MECA, recombinant mAR on HEK293 cell membranes, Kiapp for the dendrimer conjugate, read-out: mA3AR, Ki or Kiapp); 665 ± 70 nM in experiment [2]; 22.3 ± 1.6 nM in experiment [6]; 2440 ± 320 nM in experiment [7]. In addition, the “fold greater affinity at mA3AR than at hA3AR” value in experiment [1] (mouse Ki vs reported human Ki) was found to be 5.7 fold. The “Selectivity (A1 /A3)” value in experiment [1] (mouse receptors, ratio of binding Ki) was 169-fold. In addition, the “agonist efficacy in cAMP assay” value in experiment [3] (HEK293 cells overexpressing recombinant mARs) is “full agonists”. For the same molecule, the IC50 (usually the concentration that inhibits the measured activity by half) in experiment [3] (HEK293 cells, forskolin-stimulated) came to 4 nM. Further, the EC50 – broadly, the concentration that produces a half-maximal response – in experiment [3] (HEK293 cells, forskolin-stimulated, as printed in Figure 3, read-out: EC50, cAMP functional assay, mouse A3AR) is 4 ± 0.3 nM. Also, the “activity at the mA1AR in cAMP assay” value in experiment [4] (at 100 μM) was “inactive”. In addition, the “inhibition of cAMP production at the A1AR” value in experiment [4] (up to 0.1 mM) is “lacked inhibition”. Besides, the “recovery of LVDP throughout reperfusion vs control” value in experiment [5] (1 nM) is “did not; also recorded: trend in improving LVDP over control”; in experiment [5] (10 nM) it was “significant improvement”. Also, the “recovery of rates of relaxation and contraction at 45 min reperfusion vs control” value in experiment [5] (1 nM) and in experiment [5] (10 nM) was “significantly better” throughout. Besides, the “functional recovery after 20 min ischemia/45 min reperfusion compared to control” value in experiment [5] (1 and 10 nM (MRS5246 in Figure 6 also 0.1 nM), infused 10 min before ischemia) was “improved functional recovery compared to control in a concentration-dependent manner; also recorded: effective at increasing functional recovery; also recorded: significant protection starting at one nanomolar”. In addition, the “inhibition of radioligand binding at hA1AR” value in experiment [8] is listed as 12 ± 4%.
